This assay addresses human HSD1 (Homo sapiens, UniProt P28845). The assay is described as follows: in vitro inhibition of 11β-HSD1 (cortisone to cortisol conversion, time-resolved fluorescence). The format is biochemical. To be noted: purified human HSD1, cortisone substrate, NADPH, 30 min incubation, time-resolved fluorescence readout; read-out: hHSD1 IC50. How it is done: Purified human HSD1 was diluted in 50 mM Tris-HCl, 100 mM NaCl, 0.1 mg/ml BSA, 0.02% Lubrol, 20 mM MgCl2, 10 mM glucose 6-phosphate, 0.4 mM NADPH, 60 U/ml glucose 6-phosphate dehydrogenase to a concentration of 1.5 ug/ml (Enzyme Solution). Cortisone (100 uM) in DMSO was diluted to 1 uM with 50 mM Tris-HCl, 100 mM NaCl (Substrate Solution). Testing compounds (40 uM) in DMSO was diluted 3 fold in series in DMSO and further diluted 20 fold in Substrate Solution. Enzyme Solution (10 ul/well) was added into 384 well microtiter plates followed by diluted compound solutions (10 ul/well) and mixed well. Samples were then incubated at […] for 30 min. EDTA/biotin-cortisol solution (10 ul/well) in 28 mM EDTA, 100 nM biotin-cortisol, 50 mM Tris-HCl, 100 mM NaCl was then added followed by 5 ul/well of anti-cortisol antibody (3.2 ug/ml) in 50 mM Tris-HCl, 100 mM NaCl, 0.1 mg/ml BSA and the solution was incubated at 37 degrees for 30 min. Five ul per well of Eu-conjugated anti-mouse IgG (16 nM) and APC-conjugated streptavidin (160 nM) in 50 mM Tris-HCl, 100 mM NaCl, 0.1 mg/ml BSA was added and the solution was incubated at room temperature for 2 hours. Signals were quantitated by reading time-resolved fluorescence on a Victor 5 reader (Wallac).
Percent inhibition of HSD1 activity by an agent at various concentrations was calculated by the formula % Inhibition=100*[1−(Fs−Fb)/(Ft−Fb)], where: • Fs is the fluorescence signal of the sample which included the agent, • Fb is the fluorescence signal in the absence of HSD1 and agent, • Ft is the fluorescence signal in the presence of HSD1, but no agent.
The inhibitory activities of test compounds were determined by the IC50s, or the concentration of compound that gave 50% inhibition.
Chain of human HSD1 (P28845 whole entry): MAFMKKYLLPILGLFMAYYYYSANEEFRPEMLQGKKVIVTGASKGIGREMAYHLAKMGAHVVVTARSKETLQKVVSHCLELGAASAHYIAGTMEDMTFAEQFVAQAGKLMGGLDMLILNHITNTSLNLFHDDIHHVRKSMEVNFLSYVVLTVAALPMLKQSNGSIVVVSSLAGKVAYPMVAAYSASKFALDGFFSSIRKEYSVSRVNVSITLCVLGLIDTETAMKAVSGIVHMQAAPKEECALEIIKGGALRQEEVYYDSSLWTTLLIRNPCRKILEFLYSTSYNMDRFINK
For the compound `CC(C)CCNC(=O)[C@@H]1CCCN(S(=O)(=O)c2ccccc2Cl)C1` [Example 2, (3R)-1-(2-Chloro-benzenesulfonyl)-piperidine-3-carboxylic acid (3-methyl-butyl)-amide], the IC50 came out at 290 nM.

As to `O=C(NCc1cccc2ccccc12)C1CCCN(S(=O)(=O)c2ccccc2Cl)C1` (stereo not drawn) [Example 43, 1-(2-Chloro-benzenesulfonyl)-piperidine-3-carboxylic acid (naphthalen-1-ylmethyl)-amide], the concentration for half-maximal inhibition (IC50) stood at 25 nM.

For `CC(CNC(=O)C1CCCN(S(=O)(=O)c2ccccc2Cl)C1)c1ccccc1` (stereo not drawn) [Example 50], the half-inhibitory concentration (IC50) worked out at 31 nM.

`O=C(NC1CCCCC1)C1CCCN(S(=O)(=O)c2ccc3ccccc3c2)C1` (stereo not drawn) [Example 73, 1-(Naphthalene-2-sulfonyl)-piperidine-3-carboxylic acid cyclohexylamide]: the IC50 came out at 47 nM.

Regarding `Cc1c(Cl)cccc1S(=O)(=O)N1CCCC(C(=O)NCCCc2ccccc2)C1` (stereo not drawn) [Example 80, 1-(3-Chloro-2-methyl-benzenesulfonyl)-piperidine-3-carboxylic acid (3-phenyl-propyl)-amide], the 50% inhibitory concentration (IC50) stood at 12000 nM.

As for `Cc1ccccc1CNC(=O)C1CCCN(S(=O)(=O)c2ccc(F)cc2)C1` (stereo not drawn) [Example 128, 1-(4-Fluoro-benzenesulfonyl)-piperidine-3-carboxylic acid 2-methyl-benzylamide], the half-maximal inhibitory concentration (IC50) is 3000 nM.

Consider `CC(C)c1ccc(S(=O)(=O)N2CCCC(C(=O)NC3CCCCC3)C2)cc1` (stereo not drawn) [Example 135, 1-(4-Isopropyl-benzenesulfonyl)-piperidine-3-carboxylic acid cyclohexylamide], for which the IC50 was determined as 390 nM.

With `O=C(NCCc1cccc(Cl)c1)C1CCCN(S(=O)(=O)c2cccc3cccnc23)C1` (stereo not drawn) [Example 157, 1-(Quinoline-8-sulfonyl)-piperidine-3-carboxylic acid [2-(3-chloro-phenyl)-ethyl]-amide], the half-inhibitory concentration (IC50) was found to be 910 nM.

For the compound `O=C(NC1CCc2ccccc21)C1CCCN(S(=O)(=O)c2ccccc2)C1` (stereo not drawn) [Example 169, 1-Benzenesulfonyl-piperidine-3-carboxylic acid indan-1-ylamide], the half-inhibitory concentration (IC50) was found to be 390 nM.

For `CCC(COC)NC(=O)C1CCCN(S(=O)(=O)c2ccccc2)C1` (stereo not drawn) [Example 173, 1-Benzenesulfonyl-piperidine-3-carboxylic acid (1-methoxymethyl-propyl)-amide], the IC50 turned out to be 940 nM.

As to `Cc1ccccc1CNC(=O)C1CCCN(S(=O)(=O)c2ccccc2)C1` (stereo not drawn) [Example 175, 1-Benzenesulfonyl-piperidine-3-carboxylic acid 2-methyl-benzylamide], the half-inhibitory concentration (IC50) was found to be 3000 nM.

Take `O=C(NC1CCCc2ccccc21)C1CCCN(S(=O)(=O)c2cccs2)C1` (stereo not drawn) [Example 187, 1-(Thiophene-2-sulfonyl)-piperidine-3-carboxylic acid (1,2,3,4-tetrahydro-naphthalen-1-yl)-amide]: the IC50 worked out at 190 nM.

One may read the IC50 as the concentration at which inhibition is half-maximal.

For the origin of these results see patent US20060199816A1, “Aryl sulfonyl piperidines” (priority 2005, published 2006).
